Data taken from PMC9848300, “Discovery of novel enasidenib analogues targeting inhibition of mutant isocitrate dehydrogenase 2 as antileukaemic agents” (Journal of Enzyme Inhibition and Medicinal Chemistry, 2023).
Like-named read-outs stand apart in the source and are kept apart here.

Tests used:
MALME-3M = test: NCI 60 antitumor screening (single dose / five doses); format: cell-based; conditions: Homo sapiens, read-out: Growth inhibition percentage (GI %)
NCI-H460 = test: NCI 60 antitumor screening (single dose); format: cell-based; conditions: Homo sapiens; NCI-H460 (non-small cell lung cancer), single dose 10 μM; read-out: Growth inhibition percentage (GI %)
Procedure, shortened: (§1)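 NCI-60 one-dose screen. Dose: 10 μM. Lines: 60 human tumour lines, nine tissue types. Output: GI% = 100 − G%.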

U251 = test: NCI 60 antitumor screening (single dose); format: cell-based; conditions: Homo sapiens, U-251; U251 (CNS cancer), single dose 10 μM; read-out: Growth inhibition percentage (GI %)
Procedure, shortened: as §1

OVCAR-5 = test: NCI 60 antitumor screening (single dose); format: cell-based; conditions: Homo sapiens; OVCAR-5 (ovarian cancer), single dose 10 μM; read-out: Growth inhibition percentage (GI %)
Procedure, shortened: as §1

HCC-2998 = test: NCI 60 antitumor screening (single dose); format: cell-based; conditions: Homo sapiens; HCC-2998 (colon cancer), single dose 10 μM; read-out: Growth inhibition percentage (GI %)
Procedure, shortened: as §1

NCI-H23 = test: NCI 60 antitumor screening (single dose); format: cell-based; conditions: Homo sapiens; NCI-H23 (non-small cell lung cancer), single dose 10 μM; read-out: Growth inhibition percentage (GI %)
Procedure, shortened: as §1

A549/ATCC = test: NCI 60 antitumor screening (single dose); format: cell-based; conditions: Homo sapiens; A549/ATCC (non-small cell lung cancer), single dose 10 μM; read-out: Growth inhibition percentage (GI %)
Procedure, shortened: (§2)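 Assessment used the first tier of the NCI 60 screen, one dose of 10 μM per compound. Triplicate experiments gave percent growth of treated cells. Inhibition was then derived as 100 − G%.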

OVCAR-8 = test: NCI 60 antitumor screening (single dose); format: cell-based; conditions: Homo sapiens; OVCAR-8 (ovarian cancer), single dose 10 μM; read-out: Growth inhibition percentage (GI %)
Procedure, shortened: as §2

OVCAR-3 = test: NCI 60 antitumor screening (single dose); format: cell-based; conditions: Homo sapiens; OVCAR-3 (ovarian cancer), single dose 10 μM; read-out: Growth inhibition percentage (GI %)
Procedure, shortened: as §2

HOP-62 = test: NCI 60 antitumor screening (single dose); format: cell-based; conditions: Homo sapiens; HOP-62 (non-small cell lung cancer), single dose 10 μM; read-out: Growth inhibition percentage (GI %)
Procedure, shortened: as §1

KM 12 = test: NCI 60 antitumor screening (single dose); format: cell-based; conditions: Homo sapiens, KM12; KM 12 (colon cancer), single dose 10 μM; read-out: Growth inhibition percentage (GI %)
Procedure, shortened: as §2

TK-10 = test: NCI 60 antitumor screening (single dose); format: cell-based; conditions: Homo sapiens; TK-10 (renal cancer), single dose 10 μM; read-out: Growth inhibition percentage (GI %)
Procedure, shortened: as §2

NCI-H226 = test: NCI 60 antitumor screening (single dose); format: cell-based; conditions: Homo sapiens; NCI-H226 (non-small cell lung cancer), single dose 10 μM; read-out: Growth inhibition percentage (GI %)
Procedure, shortened: as §2

NCI-H322M = test: NCI 60 antitumor screening (single dose); format: cell-based; conditions: Homo sapiens; NCI-H322M (non-small cell lung cancer), single dose 10 μM; read-out: Growth inhibition percentage (GI %)
Procedure, shortened: as §2

OVCAR-4 = test: NCI 60 antitumor screening (single dose); format: cell-based; conditions: Homo sapiens; OVCAR-4 (ovarian cancer), single dose 10 μM; read-out: Growth inhibition percentage (GI %)
Procedure, shortened: as §2

PC-3 = test: NCI 60 antitumor screening (single dose); format: cell-based; conditions: Homo sapiens; PC-3 (prostate cancer), single dose 10 μM; read-out: Growth inhibition percentage (GI %)
Procedure, shortened: as §2

SNB-19 = test: NCI 60 antitumor screening (single dose); format: cell-based; conditions: Homo sapiens; SNB-19 (CNS cancer), single dose 10 μM; read-out: Growth inhibition percentage (GI %)
Procedure, shortened: as §2

NCI-H522 = test: NCI 60 antitumor screening (single dose); format: cell-based; conditions: Homo sapiens; NCI-H522 (non-small cell lung cancer), single dose 10 μM; read-out: Growth inhibition percentage (GI %)
Procedure, shortened: as §1

HS 578T = test: NCI 60 antitumor screening (single dose); format: cell-based; conditions: Homo sapiens; HS 578T (breast cancer), single dose 10 μM; read-out: Growth inhibition percentage (GI %)
Procedure, shortened: as §2

SK-OV-3 = test: NCI 60 antitumor screening (single dose); format: cell-based; conditions: Homo sapiens; SK-OV-3 (ovarian cancer), single dose 10 μM; read-out: Growth inhibition percentage (GI %)
Procedure, shortened: as §1

M14 = test: NCI 60 antitumor screening (single dose); format: cell-based; conditions: Homo sapiens; M14 (melanoma), single dose 10 μM; read-out: Growth inhibition percentage (GI %)
Procedure, shortened: as §2

CAKI-1 = test: NCI 60 antitumor screening (single dose); format: cell-based; conditions: Homo sapiens; CAKI-1 (renal cancer), single dose 10 μM; read-out: Growth inhibition percentage (GI %)
Procedure, shortened: as §2

NCI/ADR-RES = test: NCI 60 antitumor screening (single dose / five doses); format: cell-based; conditions: Homo sapiens, read-out: Growth inhibition percentage (GI %)
SR = test: as above; format: cell-based; conditions: Homo sapiens, read-out: Growth inhibition percentage (GI %)
RPMI-8226 = test: as above; format: cell-based; conditions: Homo sapiens
EKVX = test: as above; format: cell-based; conditions: Homo sapiens, read-out: Growth inhibition percentage (GI %)
SW-620 = test: as above; format: cell-based, human; conditions: Homo sapiens
[1] = MALME-3M (melanoma), single dose 10 μM
[2] = NCI/ADR-RES (ovarian cancer), single dose 10 μM
[3] = SR (leukaemia), single dose 10 μM
[4] = RPMI-8226 (leukaemia), single dose 10 μM, read-out: Growth inhibition percentage (GI %)
[5] = EKVX (non-small cell lung cancer), single dose 10 μM
[6] = SW-620 (colon cancer), single dose 10 μM, read-out: Growth inhibition percentage (GI %)

| Structure (SMILES) | inhibition at 10 µM (NCI-H460) | inhibition at 10 µM (U251) | inhibition at 10 µM (OVCAR-5) | inhibition at 10 µM (HCC-2998) | inhibition at 10 µM (NCI-H23) | inhibition at 10 µM (A549/ATCC) | inhibition at 10 µM (OVCAR-8) | inhibition at 10 µM (OVCAR-3) | inhibition at 10 µM (HOP-62) | inhibition at 10 µM (KM 12) | inhibition at 10 µM (TK-10) | inhibition at 10 µM (NCI-H226) | inhibition at 10 µM (NCI-H322M) | inhibition at 10 µM (OVCAR-4) | inhibition at 10 µM (PC-3) | inhibition at 10 µM (SNB-19) | inhibition at 10 µM (NCI-H522) | inhibition at 10 µM (HS 578T) | inhibition at 10 µM (SK-OV-3) | inhibition at 10 µM (M14) | also measured |
| --- | --- | --- | --- | --- | --- | --- | --- | --- | --- | --- | --- | --- | --- | --- | --- | --- | --- | --- | --- | --- | --- |
| C/C(=N\Nc1nc(N/N=C(\C)c2ccc([N+](=O)[O-])cc2)nc(N2CCOCC2)n1)c1ccc([N+](=O)[O-])cc1 [compound 8a, 2-(Morpholin-4-yl)-4,6-bis[(E)-2-[1–(4-nitrophenyl)ethylidene]hydrazin-1-yl]-1,3,5-triazine] | 21.9% | 7.36% | 4.46% | 3.95% | 42.1% | 26.1% | 36.4% | 11.6% | 13.8% | 17.9% | 19.2% | 58.1% | 13.3% | 22.4% | 23.4% | 36.9% | 38.3% | 21.3% | -13% | 25.5% | inhibition at 10 µM (MALME-3M; Malme-3M): 30.6%; inhibition at 10 µM (CAKI-1): 30.8%; inhibition at 10 µM (NCI/ADR-RES; NCI/ADR-RES): 31.3%; inhibition at 10 µM (SR; SR): -13.1%; inhibition at 10 µM (RPMI-8226; RPMI-8226, read-out: Growth inhibition percentage (GI %)): 35.3%; inhibition at 10 µM (EKVX; EKVX): 31.9%; inhibition at 10 µM (SW-620; SW-620, read-out: Growth inhibition percentage (GI %)): 4.48% |
| O=C1Nc2ccc(Cl)cc2/C1=N\Nc1nc(N/N=C2/C(=O)Nc3ccc(Cl)cc32)nc(N2CCOCC2)n1 [compound 8b, (3E)-5-Chloro-3-[2–(4-{2-[(3E)-5-chloro-2-oxo-2,3-dihydro-1H-indol-3-ylidene]hydrazin-1-yl}6-(morpholin-4-yl)-1,3,5-triazin-2-yl)hydrazin-1-ylidene]-2,3-dihydro-1H-indol-2-one] | 11.8% | 96.2% | 4.93% | 24.5% | 82.8% | -1.37% | 49.9% | 47.3% | 62.4% | 18.8% | -18.5% | 42.7% | 21.9% | 21.3% | 43.9% | 109% | 94.9% | 108% | 44.5% | 22.5% | inhibition at 10 µM (MALME-3M; [1]): 43.6%; inhibition at 10 µM (CAKI-1): 28%; inhibition at 10 µM (NCI/ADR-RES; [2]): 1.85%; inhibition at 10 µM (SR; [3]): 70.8%; inhibition at 10 µM (RPMI-8226; [4]): 63.6%; inhibition at 10 µM (EKVX; [5]): 14.8%; inhibition at 10 µM (SW-620; [6]): 25.7% |
| O=C(NNc1nc(NNC(=O)c2ccccc2)nc(N2CCOCC2)n1)c1ccccc1 [compound 8d, N'-[4-(morpholin-4-yl)-6-(phenylhydrazido)-1,3,5-triazin-2-yl]benzohydrazide] | -1.86% | -0.3% | -4.08% | -5.88% | 5.69% | 1.66% | 3.15% | -5.45% | -11.8% | -5.4% | -10.8% | 4.42% | 4.42% | -10.6% | -7.68% | 3.32% | -2.83% | -6.14% | -18.5% | -0.8% | inhibition at 10 µM (MALME-3M; [1]): -7.11%; inhibition at 10 µM (CAKI-1): 3.15%; inhibition at 10 µM (NCI/ADR-RES; [2]): 1.24%; inhibition at 10 µM (SR; [3]): 2.07%; inhibition at 10 µM (RPMI-8226; [4]): -9.42%; inhibition at 10 µM (EKVX; [5]): 3.9%; inhibition at 10 µM (SW-620; [6]): -4.44% |
